The values below come from patent publication US9845330B2, “6-nitro-2,3-dihydroimidazo[2,1-b]oxazoles and a process for the preparation thereof” (priority 2013, dated 2017).

Values after ≈ are worked out from the molar mass of the structure shown.

Test [1] has as its system M. tuberculosis XDR (resistant to isoniazid, rifampicin, amikacin and moxifloxacin). Description: microbe, parasite or virus in culture. The class given is cell-based. Particulars: Mycobacterium tuberculosis, 504 h, read-out: MIC M. tb XDR.
For test [2], the system named is M. tuberculosis MDR (resistant to isoniazid and rifampicin). Description: microbe, parasite or virus in culture. The class given is cell-based. Particulars: Mycobacterium tuberculosis, 504 h, read-out: MIC M. tb MDR.

As for `C[C@]1(COc2ccc(-c3cc(COc4ccc(F)cc4)on3)cc2)Cn2cc([N+](=O)[O-])nc2O1` [IC14, (R)-2-{4-[5-(4-fluorophenoxymethyl)isoxazol-3-yl]phenoxymethyl}-2,3-dihydro-2-methyl-6-nitroimidazo[2,1-b]oxazole], the MIC in test [1] and in test [2] was 0.12 mg/L (≈ 0.257 µM) throughout.
For `C[C@]1(COc2ccc(-c3cc(COc4ccc(C(F)(F)F)cc4)on3)cc2)Cn2cc([N+](=O)[O-])nc2O1` [IC15, (R)-2-{4-[5-(4-trifluoromethylphenoxymethyl)isoxazol-3-yl]phenoxymethyl}-2,3-dihydro-2-methyl-6-nitroimidazo[2,1-b]oxazole], the MIC in test [1] and in test [2] was 0.5 mg/L (≈ 0.968 µM) throughout.
As to `C[C@]1(COc2ccc(-c3cc(COc4ccccc4F)on3)cc2)Cn2cc([N+](=O)[O-])nc2O1` [IC16, (R)-2-{4-[5-(2-fluorophenoxymethyl)isoxazol-3-yl]phenoxymethyl}-2,3-dihydro-2-methyl-6-nitroimidazo[2,1-b]oxazole], the MIC in test [1] and in test [2] was 0.5 mg/L (≈ 1.07 µM) each time.
Turning to `Cc1ccc(OCc2cc(-c3ccc(OC[C@@]4(C)Cn5cc([N+](=O)[O-])nc5O4)cc3)no2)cc1` [IC17, (R)-2-{4-[5-(4-methylphenoxymethyl)isoxazol-3-yl]phenoxymethyl}-2,3-dihydro-2-methyl-6-nitroimidazo[2,1-b]oxazole], the MIC in test [1] and in test [2] was 0.5 mg/L (≈ 1.08 µM) each time.
`CC(C)c1ccc(OCc2cc(-c3ccc(OC[C@@]4(C)Cn5cc([N+](=O)[O-])nc5O4)cc3)no2)cc1` [IC18, (R)-2-{4-[5-(4-isopropylphenoxymethyl)isoxazol-3-yl]phenoxymethyl}-2,3-dihydro-2-methyl-6-nitroimidazo[2,1-b]oxazole]: the MIC in test [1] and in test [2] was 0.25 mg/L (≈ 0.51 µM) each time.
For the compound `CCc1ccc(OCc2cc(-c3ccc(OC[C@@]4(C)Cn5cc([N+](=O)[O-])nc5O4)cc3)no2)cc1` [IC19, (R)-2-{4-[5-(4-ethylphenoxymethyl)isoxazol-3-yl]phenoxymethyl}-2,3-dihydro-2-methyl-6-nitroimidazo[2,1-b]oxazole], the MIC in test [1] and in test [2] was 2 mg/L (≈ 4.2 µM) each time.
Regarding `CCC(C)c1ccc(OCc2cc(-c3ccc(OC[C@@]4(C)Cn5cc([N+](=O)[O-])nc5O4)cc3)no2)cc1` (stereo partly drawn) [IC20, (R)-2-{4-[5-(4-sec-butylphenoxymethyl)isoxazol-3-yl]phenoxymethyl}-2,3-dihydro-2-methyl-6-nitroimidazo[2,1-b]oxazole], the MIC in test [1] and in test [2] was 2 mg/L (≈ 3.96 µM) in each case.
For `C[C@]1(COc2ccc(-c3cc(COc4ccccc4)on3)cc2)Cn2cc([N+](=O)[O-])nc2O1` [IC21, (R)-2-{4-[5-(phenoxymethyl)isoxazol-3-yl]phenoxymethyl}-2,3-dihydro-2-methyl-6-nitroimidazo[2,1-b]oxazole], the MIC in test [1] and in test [2] was 4 mg/L (≈ 8.92 µM) throughout.
In the case of `C[C@]1(COc2ccc(-c3cc(COc4ccc(F)cc4F)on3)cc2)Cn2cc([N+](=O)[O-])nc2O1` [IC22, (R)-2-{4-[5-(2,4-difluorophenoxymethyl)isoxazol-3-yl]phenoxymethyl}-2,3-dihydro-2-methyl-6-nitroimidazo[2,1-b]oxazole], the MIC in test [1] and in test [2] was 0.12 mg/L (≈ 0.248 µM) each time.
Consider `C[C@]1(COc2ccc(NC(=O)Nc3ccc(F)cc3)cc2)Cn2cc([N+](=O)[O-])nc2O1` [IIA1, (R)-1-(4-fluorophenyl)-3-{4-(2-methyl-6-nitro-2,3-dihydroimidazo[2,1-b]oxazol-2-yl)methoxyphenyl}urea], for which the MIC in test [1] and in test [2] was 2 mg/L (≈ 4.68 µM) throughout.
In the case of `CCc1ccc(NC(=O)Nc2ccc(OC[C@@]3(C)Cn4cc([N+](=O)[O-])nc4O3)cc2)cc1` [IIA2, (R)-1-(4-ethylphenyl)-3-{4-(2-methyl-6-nitro-2,3-dihydroimidazo[2,1-b]oxazol-2-yl)methoxyphenyl}urea], the MIC in test [1] and in test [2] was 0.5 mg/L (≈ 1.14 µM) each time.
Take `C[C@]1(COc2ccc(NC(=O)Nc3ccc(C(F)(F)F)cc3)cc2)Cn2cc([N+](=O)[O-])nc2O1` [IIA3, (R)-1-(4-trifluoromethylphenyl)-3-{4-(2-methyl-6-nitro-2,3-dihydroimidazo[2,1-b]oxazol-2-yl)methoxyphenyl}urea]: the MIC in test [1] and in test [2] was 0.12 mg/L (≈ 0.251 µM) in each case.
In the case of `Cc1ccc(NC(=O)Nc2ccc(OC[C@@]3(C)Cn4cc([N+](=O)[O-])nc4O3)cc2)cc1` [IIA4, (R)-1-(4-methylphenyl)-3-{4-(2-methyl-6-nitro-2,3-dihydroimidazo[2,1-b]oxazol-2-yl)methoxyphenyl}urea], the MIC in test [1] and in test [2] was 0.06 mg/L (≈ 0.142 µM) throughout.
As for `COc1ccc(NC(=O)Nc2ccc(OC[C@@]3(C)Cn4cc([N+](=O)[O-])nc4O3)cc2)cc1` [IIA5, (R)-1-(4-methoxyphenyl)-3-{4-(2-methyl-6-nitro-2,3-dihydroimidazo[2,1-b]oxazol-2-yl)methoxyphenyl}urea], the MIC in test [1] and in test [2] was 1 mg/L (≈ 2.28 µM) in each case.
With `C[C@]1(COc2ccc(NC(=O)Nc3ccc(OC(F)(F)F)cc3)cc2)Cn2cc([N+](=O)[O-])nc2O1` [IIA6, (R)-1-(4-trifluoromethoxyphenyl)-3-{4-(2-methyl-6-nitro-2,3-dihydroimidazo[2,1-b]oxazol-2-yl)methoxyphenyl}urea], the MIC in test [1] and in test [2] was 0.5 mg/L (≈ 1.01 µM) throughout.
For `COc1ccc(NC(=S)Nc2ccc(OC[C@@]3(C)Cn4cc([N+](=O)[O-])nc4O3)cc2)cc1` [IIA7, (R)-1-(4-methoxyphenyl)-3-{4-(2-methyl-6-nitro-2,3-dihydroimidazo[2,1-b]oxazol-2-yl)methoxyphenyl}thiourea], the MIC in test [1] and in test [2] was 2 mg/L (≈ 4.39 µM) in each case.
For `C[C@]1(COc2ccc(NC(=S)Nc3ccc(OC(F)(F)F)cc3)cc2)Cn2cc([N+](=O)[O-])nc2O1` [IIA8, (R)-1-(4-trifluoromethoxyphenyl)-3-{4-(2-methyl-6-nitro-2,3-dihydroimidazo[2,1-b]oxazol-2-yl)methoxyphenyl}thiourea], the MIC in test [1] and in test [2] was 2 mg/L (≈ 3.93 µM) throughout.
Consider `C[C@]1(COc2ccc(NC(=S)Nc3ccc(F)cc3)cc2)Cn2cc([N+](=O)[O-])nc2O1` [IIA9, (R)-1-(4-fluorophenyl)-3-{4-(2-methyl-6-nitro-2,3-dihydroimidazo[2,1-b]oxazol-2-yl)methoxyphenyl}thiourea], for which the MIC in test [1] and in test [2] was 4 mg/L (≈ 9.02 µM) throughout.
Consider `C[C@]1(COc2ccc(NC(=S)Nc3ccc(C(F)(F)F)cc3)cc2)Cn2cc([N+](=O)[O-])nc2O1` [IIA10, (R)-1-(4-trifluoromethylphenyl)-3-{4-(2-methyl-6-nitro-2,3-dihydroimidazo[2,1-b]oxazol-2-yl)methoxyphenyl}thiourea], for which the MIC in test [1] and in test [2] was 4 mg/L (≈ 8.11 µM) throughout.
As for `Cc1ccc(NS(=O)(=O)c2ccc(OC[C@@]3(C)Cn4cc([N+](=O)[O-])nc4O3)cc2)cc1` [IIB1, (R)-4-{(2-methyl-6-nitro-2,3-dihydroimidazo[2,1-b]oxazol-2-yl)methoxy}-N-(p-tolyl)benzenesulfonamide], the MIC in test [1] and in test [2] was 2 mg/L (≈ 4.5 µM) throughout.
Regarding `C[C@]1(COc2ccc(S(=O)(=O)Nc3ccc(OC(F)(F)F)cc3)cc2)Cn2cc([N+](=O)[O-])nc2O1` [IIB2, (R)-4-{(2-methyl-6-nitro-2,3-dihydroimidazo[2,1-b]oxazol-2-yl)methoxy}-N-(4 trifluoromethoxyphenyl)benzenesulfonamide], the MIC in test [1] and in test [2] was 2 mg/L (≈ 3.89 µM) in each case.
For the compound `C[C@]1(COc2ccc(S(=O)(=O)Nc3ccc(C(F)(F)F)cc3)cc2)Cn2cc([N+](=O)[O-])nc2O1` [IIB3, (R)-4-{(2-methyl-6-nitro-2,3-dihydroimidazo[2,1-b]oxazol-2-yl)methoxy}-N-(4 trifluoromethylphenyl)benzenesulfonamide], the MIC in test [1] and in test [2] was 2 mg/L (≈ 4.01 µM) in each case.
In the case of `CN(c1ccccc1)S(=O)(=O)c1ccc(OC[C@@]2(C)Cn3cc([N+](=O)[O-])nc3O2)cc1` [IIB4, (R)—N-methyl-4-{(2-methyl-6-nitro-2,3-dihydroimidazo[2,1-b]oxazol-2-yl)methoxy}-N-phenylbenzenesulfonamide], the MIC in test [1] and in test [2] was 4 mg/L (≈ 9 µM) each time.
`Cc1ccc(N(C)S(=O)(=O)c2ccc(OC[C@@]3(C)Cn4cc([N+](=O)[O-])nc4O3)cc2)cc1` [IIB5, (R)—N-methyl-4-{(2-methyl-6-nitro-2,3-dihydroimidazo[2,1-b]oxazol-2-yl)methoxy}-N-(p-tolyl)benzenesulfonamide]: the MIC in test [1] and in test [2] was 4 mg/L (≈ 8.72 µM) throughout.
Take `CN(c1ccc(C(F)(F)F)cc1)S(=O)(=O)c1ccc(OC[C@@]2(C)Cn3cc([N+](=O)[O-])nc3O2)cc1` [IIB6, (R)—N-methyl-4-{(2-methyl-6-nitro-2,3-dihydroimidazo[2,1-b]oxazol-2-yl)methoxy}-N-(p-trifluoromethylphenyl)benzenesulfonamide]: the MIC in test [1] and in test [2] was 1 mg/L (≈ 1.95 µM) in each case.
`C[C@]1(COc2ccc(S(=O)(=O)N3CCN(c4ccccc4)CC3)cc2)Cn2cc([N+](=O)[O-])nc2O1` [IIC1, (R)-2-{4-(4-phenylpiperazin-1-yl)sulfonylphenoxymethyl}-2,3-dihydro-2-methyl-6-nitroimidazo[2,1-b]oxazole]: the MIC in test [1] and in test [2] was 1 mg/L (≈ 2 µM) throughout.
With `C[C@]1(COc2ccc(S(=O)(=O)N3CCN(c4ccc(F)cc4)CC3)cc2)Cn2cc([N+](=O)[O-])nc2O1` [IIC2, (R)-2-{4-[4-(4-fluorophenyl)piperazin-1-yl]sulfonylphenoxymethyl}-2,3-dihydro-2-methyl-6-nitroimidazo[2,1-b]oxazole], the MIC in test [1] and in test [2] was 2 mg/L (≈ 3.86 µM) in each case.
`C[C@]1(COc2ccc(S(=O)(=O)N3CCN(c4cccc(Cl)c4)CC3)cc2)Cn2cc([N+](=O)[O-])nc2O1` [IIC3, (R)-2-{4-[4-(3-chlorophenyl)piperazin-1-yl]sulfonylphenoxymethyl}-2,3-dihydro-2-methyl-6-nitroimidazo[2,1-b]oxazole]: the MIC in test [1] and in test [2] was 8 mg/L (≈ 15 µM) in each case.
